Measured values as given in US20190375708A1 (VenatoRx Pharmaceuticals, Inc., priority 2018, published 2019).

How the values were obtained:
[1] = In vitro cytotoxicity assay (MTT cell viability) in HepG2 cells; type: cell-based, human; conditions: human
Summary of the method: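 Parental HepG2 cells in EMEM + 10% FBS were exposed to compounds (8 half-log dilutions, 30 μM to 1.0 nM) for 7 days at 37 °C, 5% CO2. MTT was then added for 3-4 h, formazan dissolved in DMSO and absorbance read at 492 nm; CC50 came from 4-parameter fits against vehicle controls.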

[2] = system: HBV replication in HepAD38 cells; test: Anti-HBV replication assay in HepAD38 cells (QPCR of extracellular HBV DNA); type: cell-based, HBV (genotype D, serotype ayw); conditions: Hepatitis B virus, 168 h, 7 days incubation, extracellular HBV DNA by QPCR, read-out: Anti-HBV EC50
Summary of the method: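 HepAD38 cells (HepG2 carrying tet-repressible HBV genotype D genome) induced by tetracycline withdrawal, treated 7 days at 37 °C with compound ([…], 1-log10 dilutions). Extracellular HBV DNA quantified by QPCR against a standard curve, normalised to DMSO; EC50 from 4-parameter fit.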

Compound	CC50 at 7 days [1] [µM]	EC50 [2] [µM]
Cc1noc([C@@H](NC(=O)C(=O)c2c(Cl)c(C(=O)Nc3ccc(F)c(C)c3)c3n2CCC3)C(C)C)n1 [Example 543, (S)-6-chloro-N-(4-fluoro-3-methylphenyl)-5-(2-((2-methyl-1-(3-methyl-1,2,4-oxadiazol-5-yl)propyl)amino)-2-oxoacetyl)-2,3-dihydro-1H-pyrrolizine-7-carboxamide]	> 30	< 0.05
Cc1noc([C@H](NC(=O)C(=O)c2c(Cl)c(C(=O)Nc3ccc(F)c(C)c3)c3n2CCC3)C(C)C)n1 [Example 544, (R)-6-chloro-N-(4-fluoro-3-methylphenyl)-5-(2-((2-methyl-1-(3-methyl-1,2,4-oxadiazol-5-yl)propyl)amino)-2-oxoacetyl)-2,3-dihydro-1H-pyrrolizine-7-carboxamide]	> 30	< 0.05
Cc1noc([C@H](C)NC(=O)C(=O)c2c(Cl)c(C(=O)Nc3ccc(F)c(C)c3)c3n2CCC3)n1 [Example 545, (S)-6-chloro-N-(4-fluoro-3-methylphenyl)-5-(2-((1-(3-methyl-1,2,4-oxadiazol-5-yl)ethyl)amino)-2-oxoacetyl)-2,3-dihydro-1H-pyrrolizine-7-carboxamide]	5 to 30	< 0.05
Cc1noc([C@@H](C)NC(=O)C(=O)c2c(Cl)c(C(=O)Nc3ccc(F)c(C)c3)c3n2CCC3)n1 [Example 546, (R)-6-chloro-N-(4-fluoro-3-methylphenyl)-5-(2-((1-(3-methyl-1,2,4-oxadiazol-5-yl)ethyl)amino)-2-oxoacetyl)-2,3-dihydro-1H-pyrrolizine-7-carboxamide]	> 30	< 0.05
Cc1cc(NC(=O)c2c(Cl)c(C(=O)C(=O)N[C@H]3CCC[C@H]3O)n3c2CCC3)ccc1F [Example 547, 6-chloro-N-(4-fluoro-3-methylphenyl)-5-(2-(((1S,2R)-2-hydroxycyclopentyl)amino)-2-oxoacetyl)-2,3-dihydro-1H-pyrrolizine-7-carboxamide]	5 to 30	0.05 to 0.499
Cc1cc(NC(=O)c2c(Cl)c(C(=O)C(=O)NC3(CO)CC(F)(F)C3)n3c2CCC3)ccc1F [Example 548, 6-chloro-5-(2-((3,3-difluoro-1-(hydroxymethyl)cyclobutyl)amino)-2-oxoacetyl)-N-(4-fluoro-3-methylphenyl)-2,3-dihydro-1H-pyrrolizine-7-carboxamide]	5 to 30	< 0.05
Cc1cc(NC(=O)c2c(Cl)c(C(=O)C(=O)NCC(C)(C)CO)n3c2CCC3)ccc1F [Example 549, 6-chloro-N-(4-fluoro-3-methylphenyl)-5-(2-((3-hydroxy-2,2-dimethylpropyl)amino)-2-oxoacetyl)-2,3-dihydro-1H-pyrrolizine-7-carboxamide]	> 30	0.5 to 1
Cc1cc(NC(=O)c2c(Cl)c(C(=O)C(=O)NCC(C)(C)O)n3c2CCC3)ccc1F [Example 550, 6-chloro-N-(4-fluoro-3-methylphenyl)-5-(2-((2-hydroxy-2-methylpropyl)amino)-2-oxoacetyl)-2,3-dihydro-1H-pyrrolizine-7-carboamide]	> 30	< 0.05
O=C(N[C@H]1C[C@H](O)C1)C(=O)c1c(Cl)c(C(=O)Nc2ccc(F)c(F)c2)c2n1CCC2 [Example 551, 6-chloro-N-(3,4-difluorophenyl)-5-(2-(((1r,3r)-3-hydroxycyclobutyl)amino)-2-oxoacetyl)-2,3-dihydro-1H-pyrrolizine-7-carboxamide]	> 30	0.05 to 0.499
Cc1cc(NC(=O)c2c(Cl)c(C(=O)C(=O)NCc3cnc(N)s3)n3c2CCC3)ccc1F [Example 552, 5-(2-(((2-aminothiazol-5-yl)methyl)amino)-2-oxoacetyl)-6-chloro-N-(4-fluoro-3-methylphenyl)-2,3-dihydro-1H-pyrrolizine-7-carboxamide]	5 to 30	< 0.05
Cc1noc([C@H](C)NC(=O)C(=O)c2c(Cl)c(C(=O)Nc3ccc(F)c(Cl)c3)c3n2CCC3)n1 [Example 553, (S)-6-chloro-N-(3-chloro-4-fluorophenyl)-5-(2-((1-(3-methyl-1,2,4-oxadiazol-5-yl)ethyl)amino)-2-oxoacetyl)-2,3-dihydro-1H-pyrrolizine-7-carboxamide]	5 to 30	< 0.05
Cc1noc([C@@H](C)NC(=O)C(=O)c2c(Cl)c(C(=O)Nc3ccc(F)c(Cl)c3)c3n2CCC3)n1 [Example 554, (R)-6-chloro-N-(3-chloro-4-fluorophenyl)-5-(2-((1-(3-methyl-1,2,4-oxadiazol-5-yl)ethyl)amino)-2-oxoacetyl)-2,3-dihydro-1H-pyrrolizine-7-carboxamide]	5 to 30	< 0.05
O=C(N[C@H]1C[C@H](O)C1)C(=O)c1c(Cl)c(C(=O)Nc2ccc(F)c(Cl)c2)c2n1CCC2 [Example 555, 6-chloro-N-(3-chloro-4-fluorophenyl)-5-(2-(((1r,3r)-3-hydroxycyclobutyl)amino)-2-oxoacetyl)-2,3-dihydro-1H-pyrrolizine-7-carboxamide]	5 to 30	0.05 to 0.499
CC(C)(CO)CNC(=O)C(=O)c1c(Cl)c(C(=O)Nc2ccc(F)c(Cl)c2)c2n1CCC2 [Example 556, 6-chloro-N-(3-chloro-4-fluorophenyl)-5-(2-((3-hydroxy-2,2-dimethylpropyl)amino)-2-oxoacetyl)-2,3-dihydro-1H-pyrrolizine-7-carboxamide]	5 to 30	0.05 to 0.499
CC(C)(O)CNC(=O)C(=O)c1c(Cl)c(C(=O)Nc2ccc(F)c(Cl)c2)c2n1CCC2 [Example 557, 6-chloro-N-(3-chloro-4-fluorophenyl)-5-(2-((2-hydroxy-2-methylpropyl)amino)-2-oxoacetyl)-2,3-dihydro-1H-pyrrolizine-7-carboxamide]	5 to 30	< 0.05
O=C(NC1(CO)CCC1)C(=O)c1c(Cl)c(C(=O)Nc2ccc(F)c(F)c2)c2n1CCC2 [Example 558, 6-chloro-N-(3,4-difluorophenyl)-5-(2-((1-(hydroxymethyl)cyclobutyl)amino)-2-oxoacetyl)-2,3-dihydro-1H-pyrrolizine-7-carboxamide]	> 30	< 0.05
CC(C)(CO)CNC(=O)C(=O)c1c(Cl)c(C(=O)Nc2ccc(F)c(F)c2)c2n1CCC2 [Example 559, 6-chloro-N-(3,4-difluorophenyl)-5-(2-((3-hydroxy-2,2-dimethylpropyl)amino)-2-oxoacetyl)-2,3-dihydro-1H-pyrrolizine-7-carboxamide]	> 30	0.05 to 0.499
CC(C)(O)CNC(=O)C(=O)c1c(Cl)c(C(=O)Nc2ccc(F)c(F)c2)c2n1CCC2 [Example 560, 6-chloro-N-(3,4-difluorophenyl)-5-(2-((2-hydroxy-2-methylpropyl)amino)-2-oxoacetyl)-2,3-dihydro-1H-pyrrolizine-7-carboxamide]	> 30	< 0.05
O=C(NC1(CO)CC1)C(=O)c1c(Cl)c(C(=O)Nc2ccc(F)c(F)c2)c2n1CCC2 [Example 561, 6-chloro-N-(3,4-difluorohphenyl)-5-(2-((1-(hydroxymethyl)cyclopropyl)amino)-2-oxoacetyl)-2,3-dihydro-1H-pyrrolizine-7-carboxamide]	> 30	< 0.05
